Holding throughout (type): cell-based
The target in assay [1] is T1, human Nav1.7 channels stably expressed in HEK 293 cells (Homo sapiens, UniProt Q15858).
T1 construct: expressed in transfected cells; host or cells: HEK 293
In words: PatchXpress 7000 automated patch-clamp, inactivated state block. Particulars: PatchXpress technique; read-out: Nav 1.7 potency. How it is done:
(§1) For all electrophysiology experiments, offline analysis was used to correct for current rundown and to determine percent inhibition as a function of drug concentration. IC50 values were determined by fitting to the Hill equation.
(§2) Sodium Current Measurements on the PatchXpress 7000®:
(§3) To measure inactivated state block of sodium channels, test compounds were characterized in an automated PatchXpress® assay (Molecular Devices) using a double-pulse protocol on human Nav1.7 and Nav1.5 channels stably expressed in HEK 293 cells. Cells were held at a potential 20 mV negative to V0.5 inact. An 8000 ms pre-pulse 7 mV positive to V0.5 inact was given followed by a hyperpolarizing 2 ms pulse to −120 mV and a 20 ms test pulse to −20 mV. Protocol was applied to cells in the absence, presence of compound and after washout. The temperature of PatchXpress instruments was maintained at 22° C. The following recording solutions were used. Internal solution (mM): 30 CsCl, 5 HEPES, 10 EGTA, 120 CsF, 5 NaF, 2 MgCl2. External solution (mM): 120 NMDG, 40 NaCl, 1 KCl, 0.5 MgCl2, 5 HEPES, 2.7 CaCl2.

In assay [2] the target is T2, human Nav1.5 channels stably expressed in HEK 293 cells (Homo sapiens, UniProt Q14524).
T2 construct: expressed in transfected cells; host or cells: HEK 293
Described as above. Particulars: PatchXpress technique. On the procedure:
as §1, §2, §3

The target in assay [3] is T1, human Nav1.7 channels stably expressed in HEK 293 cells. In words: IonWorks Quattro automated patch-clamp, inactivated state block. The note with it: IonWorks technique; read-out: Nav 1.7 potency. On the procedure:
as §1
(§4) Cell Based Assays for Nav 1.7 and Nav 1.5 Activity
(§5) Compounds were tested on human Nav1.7 and Nav1.5 channels stably expressed in HEK 293 cells. […] Cells were sealed on a planar substrate using the Population Patch […] (PPC) technology. Electrical access was obtained using both nystatin and amphotericin. A double-pulse protocol was used for the determination of IC50 values for inactivated state block. Nav1.7 and Nav1.5 expressing cells were voltage clamped at −100 mV and −110 mV, respectively. A depolarizing prepulse to −10 mV (Nav1.7) or −30 mV (Nav1.5) for 1000 ms followed by a 10 ms repolarization to −100 mV (Nav1.7) or −110 mV (Nav1.5) was given to generate fractional channel inactivation of 50%, followed by a 10 ms test pulse to −10 mV (Nav1.7) or −30 mV (Nav1.5) to measure peak current in control conditions and after compound addition. The following recording solutions were used (mM). External: 150 NaCl, 2 CaCl2, 5 KCl, 1 MgCl2, 10 HEPES, 12 Dextrose; internal: 120 CsF, 30 CsCl, 10 EGTA, 5 HEPES, 5 NaF, 2 MgCl2.
For orientation: The patch-clamp technique gives a direct electrical read-out from membranes.

The target in assay [4] is T2, human Nav1.5 channels stably expressed in HEK 293 cells. The description is as above. The note with it: IonWorks technique. How it is done:
as §1, §4, §5

T1 sequence (Q15858 whole entry): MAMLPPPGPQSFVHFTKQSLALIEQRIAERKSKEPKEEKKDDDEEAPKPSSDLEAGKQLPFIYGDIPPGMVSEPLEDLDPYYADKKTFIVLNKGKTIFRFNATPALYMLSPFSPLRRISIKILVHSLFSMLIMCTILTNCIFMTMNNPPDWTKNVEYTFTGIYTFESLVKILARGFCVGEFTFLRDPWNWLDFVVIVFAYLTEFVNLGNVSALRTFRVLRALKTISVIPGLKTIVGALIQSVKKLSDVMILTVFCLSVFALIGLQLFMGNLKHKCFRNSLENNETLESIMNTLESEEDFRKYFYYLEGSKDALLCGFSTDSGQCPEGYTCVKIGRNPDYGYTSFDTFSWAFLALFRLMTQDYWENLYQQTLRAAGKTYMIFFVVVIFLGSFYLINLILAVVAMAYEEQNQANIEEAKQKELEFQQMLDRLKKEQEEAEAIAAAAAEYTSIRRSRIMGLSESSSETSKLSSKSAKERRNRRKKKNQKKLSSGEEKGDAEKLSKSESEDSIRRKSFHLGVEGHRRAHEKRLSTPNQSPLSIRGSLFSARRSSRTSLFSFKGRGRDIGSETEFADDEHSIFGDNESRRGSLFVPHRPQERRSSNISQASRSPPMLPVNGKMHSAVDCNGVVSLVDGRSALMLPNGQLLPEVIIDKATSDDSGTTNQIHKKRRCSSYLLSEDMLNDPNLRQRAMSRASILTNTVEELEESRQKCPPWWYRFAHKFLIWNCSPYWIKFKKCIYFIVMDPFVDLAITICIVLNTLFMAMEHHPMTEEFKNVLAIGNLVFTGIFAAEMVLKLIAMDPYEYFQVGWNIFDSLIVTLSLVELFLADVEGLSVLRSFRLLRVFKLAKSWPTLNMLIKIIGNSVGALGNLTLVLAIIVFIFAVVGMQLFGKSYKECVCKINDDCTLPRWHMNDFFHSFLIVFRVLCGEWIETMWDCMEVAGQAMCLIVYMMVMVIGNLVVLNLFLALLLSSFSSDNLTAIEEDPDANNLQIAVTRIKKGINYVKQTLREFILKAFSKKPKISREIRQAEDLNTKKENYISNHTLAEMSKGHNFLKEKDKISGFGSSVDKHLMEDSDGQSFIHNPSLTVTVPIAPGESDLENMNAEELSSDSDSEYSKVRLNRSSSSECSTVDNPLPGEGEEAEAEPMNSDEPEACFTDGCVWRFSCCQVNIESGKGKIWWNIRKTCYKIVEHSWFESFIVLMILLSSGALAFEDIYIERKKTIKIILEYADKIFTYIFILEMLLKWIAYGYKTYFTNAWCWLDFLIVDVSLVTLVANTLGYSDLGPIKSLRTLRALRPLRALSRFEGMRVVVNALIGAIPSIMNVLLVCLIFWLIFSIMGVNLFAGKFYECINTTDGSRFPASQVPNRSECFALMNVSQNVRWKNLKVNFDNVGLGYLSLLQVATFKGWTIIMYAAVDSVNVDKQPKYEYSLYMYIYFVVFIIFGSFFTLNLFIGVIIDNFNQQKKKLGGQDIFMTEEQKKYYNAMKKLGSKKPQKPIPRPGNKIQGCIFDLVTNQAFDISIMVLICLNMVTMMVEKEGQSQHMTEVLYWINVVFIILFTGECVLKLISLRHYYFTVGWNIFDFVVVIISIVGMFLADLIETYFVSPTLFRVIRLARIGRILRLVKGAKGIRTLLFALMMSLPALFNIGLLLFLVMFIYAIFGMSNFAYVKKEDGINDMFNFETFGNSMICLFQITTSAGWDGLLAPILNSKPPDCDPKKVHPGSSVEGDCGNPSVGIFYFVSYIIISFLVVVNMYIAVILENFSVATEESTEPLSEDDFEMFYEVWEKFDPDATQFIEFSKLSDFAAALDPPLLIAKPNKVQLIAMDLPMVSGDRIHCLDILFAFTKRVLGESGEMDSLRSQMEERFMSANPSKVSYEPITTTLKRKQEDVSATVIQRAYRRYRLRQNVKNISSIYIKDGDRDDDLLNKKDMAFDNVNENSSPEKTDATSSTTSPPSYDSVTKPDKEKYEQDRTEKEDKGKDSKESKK
T2 sequence (Q14524 whole entry): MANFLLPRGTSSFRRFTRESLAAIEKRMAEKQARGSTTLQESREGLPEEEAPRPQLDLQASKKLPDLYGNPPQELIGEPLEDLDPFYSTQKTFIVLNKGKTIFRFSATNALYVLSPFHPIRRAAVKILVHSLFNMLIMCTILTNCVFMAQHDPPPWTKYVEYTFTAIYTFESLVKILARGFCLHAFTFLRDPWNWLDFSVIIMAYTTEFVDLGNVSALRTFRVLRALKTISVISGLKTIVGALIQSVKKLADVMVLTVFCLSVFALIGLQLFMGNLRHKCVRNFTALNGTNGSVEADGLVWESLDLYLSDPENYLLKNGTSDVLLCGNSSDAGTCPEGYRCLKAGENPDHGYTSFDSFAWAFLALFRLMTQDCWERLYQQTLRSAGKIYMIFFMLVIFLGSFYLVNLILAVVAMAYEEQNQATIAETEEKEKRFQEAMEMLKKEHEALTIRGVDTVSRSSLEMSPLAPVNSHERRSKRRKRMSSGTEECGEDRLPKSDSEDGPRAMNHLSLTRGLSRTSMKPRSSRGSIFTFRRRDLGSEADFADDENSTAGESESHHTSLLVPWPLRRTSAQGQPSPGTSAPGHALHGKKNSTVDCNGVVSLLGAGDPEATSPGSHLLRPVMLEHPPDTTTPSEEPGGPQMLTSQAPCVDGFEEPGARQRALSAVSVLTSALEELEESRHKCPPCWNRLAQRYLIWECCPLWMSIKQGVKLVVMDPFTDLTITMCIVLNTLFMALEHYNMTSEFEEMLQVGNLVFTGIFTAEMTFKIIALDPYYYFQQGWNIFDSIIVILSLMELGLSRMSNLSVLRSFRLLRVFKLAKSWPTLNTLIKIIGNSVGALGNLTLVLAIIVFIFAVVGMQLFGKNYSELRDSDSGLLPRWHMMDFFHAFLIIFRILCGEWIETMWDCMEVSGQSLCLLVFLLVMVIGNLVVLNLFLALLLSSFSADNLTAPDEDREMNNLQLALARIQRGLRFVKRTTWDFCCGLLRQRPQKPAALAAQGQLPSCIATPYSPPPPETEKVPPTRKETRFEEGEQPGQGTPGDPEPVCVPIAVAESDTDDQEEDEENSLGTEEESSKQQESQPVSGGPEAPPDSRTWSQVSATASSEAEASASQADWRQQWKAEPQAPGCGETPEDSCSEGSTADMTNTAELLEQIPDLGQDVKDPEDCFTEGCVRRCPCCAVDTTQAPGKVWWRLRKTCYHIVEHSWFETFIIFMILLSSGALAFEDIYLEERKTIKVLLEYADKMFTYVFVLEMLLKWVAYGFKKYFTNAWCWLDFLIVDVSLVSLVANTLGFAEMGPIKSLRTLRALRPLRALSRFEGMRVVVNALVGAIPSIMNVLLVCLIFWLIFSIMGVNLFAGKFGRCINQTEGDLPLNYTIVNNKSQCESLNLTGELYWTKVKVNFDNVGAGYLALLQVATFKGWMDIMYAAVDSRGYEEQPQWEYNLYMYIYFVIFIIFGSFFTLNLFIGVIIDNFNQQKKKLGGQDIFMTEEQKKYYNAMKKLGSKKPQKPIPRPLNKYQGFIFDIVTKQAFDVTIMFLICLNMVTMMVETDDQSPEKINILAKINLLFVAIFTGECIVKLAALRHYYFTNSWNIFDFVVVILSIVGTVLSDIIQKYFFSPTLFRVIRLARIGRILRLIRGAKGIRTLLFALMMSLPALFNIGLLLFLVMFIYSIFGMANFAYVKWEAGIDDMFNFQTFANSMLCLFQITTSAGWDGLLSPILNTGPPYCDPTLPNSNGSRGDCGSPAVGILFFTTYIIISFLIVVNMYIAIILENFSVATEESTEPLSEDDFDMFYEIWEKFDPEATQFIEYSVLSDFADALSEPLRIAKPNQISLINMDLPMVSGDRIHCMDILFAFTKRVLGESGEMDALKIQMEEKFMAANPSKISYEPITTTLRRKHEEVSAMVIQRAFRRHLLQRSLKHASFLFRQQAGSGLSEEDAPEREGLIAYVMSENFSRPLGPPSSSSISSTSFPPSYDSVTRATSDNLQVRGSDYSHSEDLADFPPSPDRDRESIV

For the molecule `O=S(=O)(Nc1cccc(F)n1)c1cc2cnn(Cc3cccc4c3CNCC4)c2cc1F` [Ex-4, 6-fluoro-N-(6-fluoropyridin-2-yl)-1-((1,2,3,4-tetrahydroisoquinolin-8-yl)methyl)-1H-indazole-5-sulfonamide], the IC50 in assay [1] was determined as 855 nM; in assay [3], 519 nM. The “Ratio 1.5:1.7 = Nav 1.5 potency (nM)/Nav1.7 potency (nM)” value (“Ratio 1.5:1.7 = Nav 1.5 potency” for short) in assay [2] is 64; in assay [4], 58.
The matching figures for `O=S(=O)(Nc1nccs1)c1cc2cnn(Cc3cccc4c3CNCC4)c2cc1F` [Ex-2, 6-fluoro-1-((1,2,3,4-tetrahydroisoquinolin-8-yl)methyl)-N-(thiazol-2-yl)-1H-indazole-5-sulfonamide]: 20 nM, 25 nM, 2025 and 1200.
In the case of `CN(C)CCNC(=O)c1cccc(-c2cc(Cl)ccc2Cn2ncc3cc(S(=O)(=O)Nc4ncns4)ccc32)c1` [Ex-20, 5′-chloro-N-[2-(dimethylamino)ethyl]-2′-{[5-(1,2,4-thiadiazol-5-ylsulfamoyl)-1H-indazol-1-yl]methyl}biphenyl-3-carboxamide], the IC50 in assay [3] was 960 nM. Further, the “Ratio 1.5:1.7 = Nav 1.5 potency” value in assay [4] was 34.
Turning to `O=S(=O)(Nc1ncns1)c1ccc2c(cnn2Cc2ccc(Cl)cc2C2=CCNCCC2)c1` [Ex-17, 1-[4-chloro-2-(2,5,6,7-tetrahydro-1H-azepin-4-yl)benzyl]-N-1,2,4-thiadiazol-5-yl-1H-indazole-5-sulfonamide], the IC50 in assay [1] was found to be 4470 nM; in assay [3], 559 nM. The results for the “Ratio 1.5:1.7 = Nav 1.5 potency” value in assay [2] and in assay [4] were 7 and 59, respectively.
The matching figures for `NC/C=C/c1cc(Cl)ccc1Cn1ncc2cc(S(=O)(=O)Nc3ncns3)ccc21` [Ex-16, 1-{2-[(1E)-3-aminoprop-1-en-1-yl]-4-chlorobenzyl}-N-1,2,4-thiadiazol-5-yl-1H-indazole-5-sulfonamide]: 939 nM, 413 nM, 32 and 81.
Turning to `O=S(=O)(Nc1ncns1)c1ccc2c(cnn2Cc2ccc(Cl)cc2C2=CCNCC2)c1` [Ex-18, 1-[4-chloro-2-(1,2,3,6-tetrahydropyridin-4-yl)benzyl]-N-1,2,4-thiadiazol-5-yl-1H-indazole-5-sulfonamide], the IC50 in assay [1] came to 5210 nM; in assay [3] it was 781 nM. The “Ratio 1.5:1.7 = Nav 1.5 potency” value in assay [2] is on record as 6; in assay [4], 42.
On to `NC/C=C/c1ccccc1Cn1ncc2cc(S(=O)(=O)Nc3ncns3)cc(Cl)c21` [Ex-63, 1-{2-[(1E)-3-aminoprop-1-en-1-yl]benzyl}-7-chloro-N-1,2,4-thiadiazol-5-yl-1H-indazole-5-sulfonamide], for which, in assay [3], the IC50 worked out at 1720 nM. The “Ratio 1.5:1.7 = Nav 1.5 potency” value in assay [4] is more than 19.
For the molecule `C[C@H](c1ccccc1)n1ncc2cc(S(=O)(=O)Nc3ncns3)c(F)cc21` [Ex-9, 6-fluoro-1-[(1R)-1-phenylethyl]-N-1,2,4-thiadiazol-5-yl-1H-indazole-5-sulfonamide], the IC50 in assay [1] was 410 nM; in assay [3], 1040 nM. For the same molecule, the results for the “Ratio 1.5:1.7 = Nav 1.5 potency” value in assay [2] and in assay [4] were 65 and 27, respectively.
For `O=S(=O)(Nc1ncns1)c1cc2cnn(Cc3ccccc3)c2cc1F` [Ex-12, 1-benzyl-6-fluoro-N-(1,2,4-thiadiazol-5-yl)-1H-indazole-5-sulfonamide], the IC50 in assay [1] came to 495 nM; in assay [3] it was 936 nM. Besides, the “Ratio 1.5:1.7 = Nav 1.5 potency” value in assay [2] is given as 174; in assay [4], 15.
The matching figures for `C[C@H](c1cccc2c1CNCC2)n1ncc2cc(S(=O)(=O)Nc3ncns3)c(F)cc21` [Ex-6, (R)-6-fluoro-1-(1-(1,2,3,4-tetrahydroisoquinolin-8-yl)ethyl)-N-(1,2,4-thiadiazol-5-yl)-1H-indazole-5-sulfonamide]: 94 nM, 21 nM, 320 and 1066.
Regarding `C[C@@H](c1ccccc1)n1ncc2cc(S(=O)(=O)Nc3ncns3)c(F)cc21` [Ex-11, 6-fluoro-1-[(1S)-1-phenylethyl]-N-1,2,4-thiadiazol-5-yl-1H-indazole-5-sulfonamide], the IC50 in assay [1] was 343 nM; in assay [3], 1480 nM. For the same molecule, the “Ratio 1.5:1.7 = Nav 1.5 potency” value in assay [2] is recorded as 32; in assay [4] it was 11.
The matching figures for `O=S(=O)(Nc1ncc(Cl)s1)c1cc2cnn(Cc3cccc4c3CNCC4)c2cc1F` [Ex-3, N-(5-chlorothiazol-2-yl)-6-fluoro-1-((1,2,3,4-tetrahydroisoquinolin-8-yl)methyl)-1H-indazole-5-sulfonamide]: 52 nM, 328 nM, 636 and 91.
The matching figures for `NC1CCc2cccc(Cn3ncc4cc(S(=O)(=O)Nc5ncns5)c(F)cc43)c2C1` (single isomer, unassigned) [Ex-13, (R or S)-1-((7-amino-5,6,7,8-tetrahydronaphthalen-1-yl)methyl)-6-fluoro-N-(1,2,4-thiadiazol-5-yl)-1H-indazole-5-sulfonamide]: 7 nM, 6 nM, 2275 and 5406.
Consider `O=S(=O)(Nc1ncns1)c1ccc2c(cnn2Cc2ccc(Cl)cc2C2=CC3CCC(C2)N3)c1` (centres unmarked) [Ex-21, 1-[2-(8-azabicyclo[3.2.1]oct-2-en-3-yl)-4-chlorobenzyl]-N-1,2,4-thiadiazol-5-yl-1H-indazole-5-sulfonamide], for which the IC50 in assay [3] worked out at 1260 nM. For the same molecule, the “Ratio 1.5:1.7 = Nav 1.5 potency” value in assay [4] is 26.
`NCC(F)c1ccccc1Cn1ncc2cc(S(=O)(=O)Nc3cccc(F)n3)c(F)cc21` (centres unmarked) [Ex-38, 1-[2-(2-amino-1-fluoroethyl)benzyl]-6-fluoro-N-(6-fluoropyridin-2-yl)-1H-indazole-5-sulfonamide]: in assay [1], the IC50 worked out at 185 nM. The “Ratio 1.5:1.7 = Nav 1.5 potency” value in assay [2] stood at 162.
On to `O=S(=O)(Nc1ncns1)c1cc2cnn(Cc3ccccc3I)c2cc1F` [Ex-7, 6-fluoro-1-(2-iodobenzyl)-N-1,2,4-thiadiazol-5-yl-1H-indazole-5-sulfonamide], for which, in assay [3], the IC50 came out at 340 nM. In addition, the “Ratio 1.5:1.7 = Nav 1.5 potency” value in assay [4] is 19.
For `C[C@H](c1ccccc1C#CCN)n1ncc2cc(S(=O)(=O)Nc3ncc(Cl)s3)c(F)cc21` [Ex-56, 1-{(1R)-1-[2-(3-aminoprop-1-yn-1-yl)phenyl]ethyl}-N-(5-chloro-1,3-thiazol-2-yl)-6-fluoro-1H-indazole-5-sulfonamide], in assay [1], the IC50 stood at 244 nM. For the same molecule, the “Ratio 1.5:1.7 = Nav 1.5 potency” value in assay [2] is 39.
The matching figures for `C[C@H](c1cccc2c1CNCC2)n1ncc2cc(S(=O)(=O)Nc3ncc(Cl)s3)c(F)cc21` [Ex-54, N-(5-chloro-1,3-thiazol-2-yl)-6-fluoro-1-[(1R)-1-(1,2,3,4-tetrahydroisoquinolin-8-yl)ethyl]-1H-indazole-5-sulfonamide]: 137 nM and 50.
For `NC1Cc2cccc(Cn3ncc4cc(S(=O)(=O)Nc5cccc(F)n5)c(F)cc43)c2C1` (centres unmarked) [Ex-39, 1-[(2-amino-2,3-dihydro-1H-inden-4-yl)methyl]-6-fluoro-N-(6-fluoropyridin-2-yl)-1H-indazole-5-sulfonamide], in that order: 232 nM and 129.
The matching figures for `NC1CCc2cccc(Cn3ncc4cc(S(=O)(=O)Nc5ncc(Cl)s5)c(F)cc43)c2C1` (centres unmarked) [Ex-53, 1-[(7-amino-5,6,7,8-tetrahydronaphthalen-1-yl)methyl]-N-(5-chloro-1,3-thiazol-2-yl)-6-fluoro-1H-indazole-5-sulfonamide]: 8 nM and 1193.
